One experiment has as its system H160 (Lung). Kind of experiment: SRB assay, H160. The class given is cell-based, human. The settings on record: 48 h. The procedure: (§1) SRB assays were performed according to standard National Cancer Institute Guidelines. Briefly, human tumor cells from different cancer panels were seeded into 96 well plates in 100 μL (plating densities ranging from 5-40,000 cells/well depending on the doubling time of individual cell lines) in serum-containing media for twenty-four hours prior to the addition of the compounds to be assayed. After 24 hours, one plate of each cell line was fixed in situ with trichloroacetic acid (TCA). The fixed slides were used to determine the cell population for each cell line at the time of drug addition (Tz). Each compound to be tested was solubilized in DMSO and the desired concentration was then added to the medium and diluted serially 1:10 to provide a total of five or ten drug concentrations plus control (in a final volume of 200 μL). The starting dose before any dilution was 100 uM for all compounds.
(§2) Following drug addition, each culture was incubated for forty-eight hours. The assay was terminated with the addition of cold TCA. The supernatant was discarded, and the plates were washed with tap water and air dried. Sulforhodamine B (SRB) solution was then added to each well. After staining, the bound stain was solubilized and the absorbance was read on an automated plate reader at a wavelength of 515 nm.
(§3) Using the absorbance measurements [time zero, (Tz), control growth, (C), and test growth in the presence of drug at the ten concentration levels (Ti)], the percentage growth was calculated at each of the drug concentrations levels. Percentage growth inhibition was calculated as:
(§4) [(Ti−Tz)/(C−Tz)]×100 for concentrations for which Ti>/=Tz
(§5) [(Ti−Tz)/Tz]×100 for concentrations for which Ti<Tz.
(§6) Three dose response parameters were calculated for each experimental agent. Growth inhibition of 50% (GI50) was calculated from [(Ti−Tz)/(C−Tz)]×100=50, which was the drug concentration resulting in a 50% reduction in the net protein increase (as measured by SRB staining) in control cells during the drug. The drug concentration resulting in total growth inhibition (TGI) was calculated from Ti=Tz. The LC50 (concentration of drug resulting in a 50% reduction in the measured protein at the end of the drug treatment as compared to that at the beginning) indicating a net loss of cells following treatment was calculated from [(Ti−Tz)/Tz]×100=−50.
(§7) Values were calculated for each of these three parameters when the level of activity was reached; however, if the effect was not reached or was exceeded, the value for that parameter was expressed as greater or less than the maximum or minimum concentration tested.
(§8) Table 4 summarizes results characterizing the effects of compound Nos. 120, 12, 61, 1, and 56 on GI50, which measures the cell growth inhibitory power of the compound, TGI, which measures cytostatic effect (TGI) and LC50, which signifies cytotoxic effect. Each of these parameters in Table 4 was calculated in a sulforhodamine B (SRB) assay, which provides a colorimetric measure of a compound's anti-cancer activity. SRB assays were performed with compounds of the invention in 22 different cell lines (shaded in light gray in Table 4), which represent nine different tumor panels (lung, melanoma, ovary, prostate, CNS, breast, pancreas colon and renal). Ouabain and digoxin were used as controls. Paclitaxel was added as a non-Na^+K^+-ATPase inhibitor control.

The subject of a further experiment is LOXIMVI (Melanoma). Kind of experiment: SRB assay, LOXIMVI. The settings on record: 48 h. The class given is cell-based, human. The procedure: as §1, §2, §3, §4, §5, §6, §7, §8
A further experiment has as its system IGROV1 (Ovary). Kind of experiment: SRB assay, IGROV1. The class given is cell-based, human. Here is the method:
as §1, §2, §3, §4, §5, §6, §7, §8

A further experiment concerns U251 (CNS). Kind of experiment: SRB assay, U251. The class given is cell-based, human. Here is the method: as §1, §2, §3, §4, §5, §6, §7, §8
The next experiment concerns MCF7 (Breast). In words: SRB assay, MCF7. The class given is cell-based, human. The procedure:
as §1, §2, §3, §4, §5, §6, §7, §8

For the next experiment, the system named is SU8686 (Pancreas). In words: SRB assay, SU8686. The class given is cell-based, human. Here is the method: as §1, §2, §3, §4, §5, §6, §7, §8
The subject of a further experiment is HCT15 (Colon). In words: SRB assay, HCT15. The class given is cell-based, human. Here is the method:
as §1, §2, §3, §4, §5, §6, §7, §8

For experiment [1], the system named is 22 different cell lines, nine tumor panels (lung, melanoma, ovary, prostate, CNS, breast, pancreas colon and renal). In words: SRB assay, all tumor cell line panels (summary statements). The class given is cell-based, human. The procedure:
as §1, §2, §3
Three dose response parameters were calculated for each experimental agent. […] The drug concentration resulting in total growth inhibition (TGI) was calculated from Ti=Tz. The LC50 (concentration of drug resulting in a 50% reduction in the measured protein at the end of the drug treatment as compared to that at the beginning) indicating a net loss of cells following treatment was calculated from [(Ti−Tz)/Tz]×100=−50.
Each of these parameters in Table 4 was calculated in a sulforhodamine B (SRB) assay, which provides a colorimetric measure of a compound's anti-cancer activity. SRB assays were performed with compounds of the invention in 22 different cell lines (shaded in light gray in Table 4), which represent nine different tumor panels (lung, melanoma, ovary, prostate, CNS, breast, pancreas colon and renal). […] Paclitaxel was added as a non-Na^+K^+-ATPase inhibitor control.

Experiment [2] deals with HCT116 colon cancer, PC3 and DU145 prostate cancer cell lines. Kind of experiment: MTT proliferation/viability assay. The class given is cell-based. The settings on record: 72 h, FIGS. 1A-1D, HCT116 only compound 120. Here is the method:
All assays were performed in triplicate.
The effect of the different compounds on the proliferation and viability of cancer cell lines was tested. Compound 120 was tested in one colon cancer cell line (HCT116), and compound Nos. 120, 12, 61, 1, and 56 were tested in two prostate cancer cell lines (PC3 and DU145). […] This colorimetric assay uses the reduction of MTT to formazan as a measure of metabolic activity. Untreated cells cultured in the presence of serum were used as a negative control.

As to `C[C@]12CCC(=NOCCN)C=C1CCC1C2CC[C@@]2(C)C1CC[C@@H]2O` (stereo partly drawn) [Compound 120, (1S,9aR,11aS)-17-hydroxy-10,13-dimethyl-6,7,8,9,10,11,12,13,14,15,16,17-dodecahydro-1H-cyclopenta[a]phenanthren-3(2H)-one O-2-aminoethyl oxime], the total growth inhibition concentration (TGI) with H160 (Lung) (H160, SRB) stood at 11.68 µM; with LOXIMVI (Melanoma) (LOXIMVI, SRB), 25.19 µM; in the experiment on IGROV1 (Ovary) (IGROV1, SRB, 48 h), 10.74 µM; in the experiment with U251 (CNS) (U251, SRB, 48 h), 27.92 µM; in the experiment on MCF7 (Breast) (MCF7, SRB, 48 h), 14.85 µM; in the experiment with SU8686 (Pancreas) (SU8686, SRB, 48 h), 15.27 µM. Moreover, the TGI in the experiment with HCT15 (Colon) (HCT15, SRB, 48 h) is 23.51 µM. Moreover, the CC50 with H160 (Lung) (Homo sapiens, read-out: LC50) is 21.7 µM; with LOXIMVI (Melanoma) (Homo sapiens, LOX IMVI, read-out: LC50), 97.2 µM; in the experiment on IGROV1 (Ovary) (Homo sapiens, IGROV-1, 48 h, read-out: LC50) it was 67.4 µM; in the experiment with U251 (CNS) (Homo sapiens, U-251, 48 h, read-out: LC50), 68.5 µM; with MCF7 (Breast) (Homo sapiens, MCF7, 48 h, read-out: LC50), 24.1 µM; in the experiment with SU8686 (Pancreas) (Homo sapiens, SU.86.86, 48 h, read-out: LC50), 23.1 µM. Further, the CC50 in the experiment with HCT15 (Colon) (Homo sapiens, HCT-15, 48 h, read-out: LC50) came out at 76.3 µM. For the same compound, the GI50 stood at 4.13 µM with H160 (Lung) (Homo sapiens, H160, SRB); 7.14 µM with LOXIMVI (Melanoma) (Homo sapiens, LOX IMVI, LOXIMVI, SRB); 5.49 µM in the experiment with IGROV1 (Ovary) (Homo sapiens, IGROV-1, IGROV1, SRB, 48 h); 6.77 µM in the experiment with U251 (CNS) (Homo sapiens, U-251, U251, SRB, 48 h, read-out: GI50); 7.04 µM in the experiment with MCF7 (Breast) (Homo sapiens, MCF7, SRB, 48 h); 7.45 µM in the experiment with SU8686 (Pancreas) (Homo sapiens, SU.86.86, SU8686, SRB, 48 h). In the experiment with HCT15 (Colon) (Homo sapiens, HCT-15, HCT15, SRB, 48 h), this compound came in with a GI50 of 6.39 µM. In experiment [1] (SRB, all cell line panels), the “GI50 action in all cell line panels tested (in words)” value is on record as “mostly single-digit micromolar GI50 action”. Besides, in experiment [1] (lung, breast, CNS, colon, prostate, ovary, pancreas, kidney and melanoma lines, including a multidrug resistant cell line), the “viability and/or cell proliferation of neoplastic cell lines” value was “reduced the viability and/or cell proliferation”. In addition, the “inhibition of cell proliferation and viability (MTT)” value in [2] was “strong inhibition of cell proliferation and viability”.

The values are drawn from US20120238488A1, “COMPOUNDS AND METHODS FOR TREATING NEOPLASIA” (priority 2009, published 2012).
